From patent US20250011726A1, “METHODS AND COMPOSITIONS FOR MAINTAINING AGGREGATE STABILITY AND PLURIPOTENCY OF STEM CELLS” (Trailhead Biosystems Inc., priority 2023, published 2025)

Key:
[1] = test system: hiPSCs; assay: Pluripotency marker expression by flow cytometry and qPCR; type: cell-based, human; settings: for factor contribution (FC), NANOG optimization: MODDE optimizer for NANOG
Description: 3 ml sample was taken from each bioreactor on day 4 of the culture for qPCR testing. RNA samples were dissolved in Trizol and extracted. Quantification of RNA was performed on epoch reader. A high-Capacity cDNA RT Kit was used for reverse transcription of RNA samples of each bioreactor. 3 replicate samples of cDNA were obtained from 3 replicate samples of each bioreactor. Data collection was performed using QuantStudio for qPCR testing. The runs were performed per the manufacturer's protocol and recommendations. The primers used were NANOG, SOX2, POU5F1 and GAPDH. The data set obtained was then exported to Excel and normalized against corresponding housekeeping gene GAPDH. Final expression levels were expressed as 1/(2^Crt)×1000 and inputted into the MODDE software. A 3 ml sample was taken from each bioreactor on day 4 of the culture for flow testing. The aggregates were dissociated with Accutase for 10 minutes into single cells. Cells were resuspended in PBS and divided into samples for intracellular staining and cells for extracellular staining. Sample for intracellular staining were fixed with a live/dead stain FVS 780, then permeabilized and stained for OCT4 and SOX2.
Pluripotency data was assessed at the end of the experiment through Immunohistochemistry (IHC), flow cytometry and qPCR testing. The experiment was divided into two batches of experiments to be run at different times. Three replicated center point experiments with all five additives at mid-concentrations were used and split between the batches for normalization and model evaluation purposes. The optimization criteria were based on multiple attributes related to aggregate stability, cell growth and pluripotency. Mathematical models were generated and tuned for maximal predictive power and fit. The model responses for each parameter were statistically evaluated for model reproducibility, model validity, fit (R2) and prediction precision (Q2). […] The model had model validity above 0.25 indicating the absence of problems related to outliers and transformation issues.
Attaining maximal growth conditions of iPSC is not meaningful unless the iPSC state characteristics is also maintained. […] At the end of the experiment, using flow cytometry we tested for SSEA4, OCT4, SOX2 and TRA-1-60 while a complimentary q-PCR assessment was conducted for NANOG, OCT4 and SOX2. The results of these experiments were used to model the effect of the additives on pluripotency. […] This is because that until proven that individual factors are not in regulatory conflict (i.e., SOX2, NANOG, or OCT4 being subject to differential control), single-response factor optimization is prudent. As we found, these factors are indeed subject to differential control.

[2] = test system: hiPSC aggregates; assay: Aggregate size, deviation and Aggregate % Error in bioreactor; type: cell-based, human; settings: DS and pluronic F68 at low concentrations; heparin sodium salt and PEG present; FIG. 4B
Description: Samples from the bioreactor were taken after slightly mixing using a pipette to avoid sampling bias and gradient formation after settling. 3 ml total was sampled daily for 3 samples of 1 ml for cell count. The cells were first dissociated using Accutase and incubated for 10minutes. Cells were then quenched with E8 then centrifuged at 400×g for 6 minutes. The pellet was resuspended in the same volume of PBS. Samples were then analyzed for total cell count using Attune flow. 3 replicate counts were collected for each bioreactor for each day of culture. 2 samples were collected for aggregate imaging of 500 ul and put on a 24 well plate. EVOS 7000 was used for bright field images of the aggregates. […] A minimum of 30 aggregates were measured for each bioreactor every day of the culture. […] The cell counts were also analyzed for doubling time using GraphPad Prism. […] Using the aggregate size generated from day 1 from all bioreactors and their corresponding cell growth rate, a predicted aggregate size was calculated for day 3 and compared to the actual size measured. The predicted aggregate size was calculated from theoretical aggregate volume. […]
From the cell number, the predicted aggregate volume (V3P) was calculated again from the first equation. […] This is calculated by subtracting the predicted from the actual average size measured and divided by the actual value: […]

[3] = coefficients of flow and qPCR markers, FIG. 3B

Row | Substance | factor contribution (FC), NANOG optimization [1] | contribution factor, optimizer for target aggregate % error of 0 [2] | impact on NANOG (coefficient) [1, 3] | impact on OCT4 (coefficient) [1, 3]
1 | Heparin sodium salt [reference compound] | 21.12 | 21.71 |  | 
2 | dextran sulfate [DS] | 48.04 | 28.05 | positive | negative
